Results reported in patent US20180243325A1, “METHOD FOR INHIBITING ABSORPTION OF AND/OR PROMOTING EXCRETION OF LIPIDS USING D-PSICOSE” (CJ CHEILJEDANG CORPORATION, priority 2015, published 2018).

Assays:
Format in all cases: in vivo, C57BL/6J mice
Fatty acid β-oxidation = test: Hepatic fatty acid β-oxidation activity; conditions: FIG. 4B, liver, HFD+5% w/w in diet, 16 weeks
Description: First, 4-week-old male C57BL/6J mice (60 total) were purchased from Jackson Laboratory. The animals were acclimated to the vivarium in a thermo-hygrostat (20-23° C., 45-65%) under a 12 h light/dark cycle and fed a pelletized commercial non-purified diet for 1 week after arrival. The mice were then randomly divided into 6 groups (n=10) and fed the respective experimental diets for 16 weeks: normal diet group (ND, American Institute of Nutrition (AIN)-76 semi-synthetic diet), high-fat diet group (HFD, 20% fat+1% cholesterol based on AIN-76 diet), PSI group (HFD+5% D-psicose, w/w, Sigma Chemical Company), ERY group (HFD+5% erythritol, w/w, Sigma Chemical Company), GLU group (HFD+5% D-glucose, w/w, Sigma Chemical Company), and FRU group (HFD+5% D-fructose, w/w, Sigma Chemical Company). All high-fat diet-fed groups were allowed to ingest the same calories by pair feeding based on the PSI group. The mice had ad libitum access to distilled water during the experimental period. Their feed intakes and body weights were measured daily and biweekly, respectively. The organ weights and the adipose tissue weights of the mice were measured after sacrificing the animals. Samples were prepared and analyzed according to the method developed by Hulcher and Oleson. Specifically, the activity of fatty acid synthase (FAS) as a hepatic lipid regulating enzyme was measured by spectrophotometric assay according to the method described by Nepokroeff et al. Each sample was mixed with 100 μl of cytoplasmic fraction and the mixture was allowed to react at 30° C. for 2 min. A reduction in absorbance at 340 nm was measured. Fatty acid synthase (FAS) activity units were expressed as nanomoles (nmol) of NADPH oxidized for 1 min per mg of cytoplasmic fraction. Fatty acid β-oxidation activity was measured by monitoring the reduction of NAD^+ to NADH in the presence of palmitoyl-CoA, as described by Lazarow. β-oxidation activity units were expressed as nanomoles (nmol) of NADH produced for 1 min per mg of mitochondrial protein.

[1] = test system: CPT2 (Carnitine palmitoyltransferase 2, 12896); test: Hepatic mRNA expression, real-time quantitative PCR: CPT2; conditions: FIG. 6, liver, HFD+5% w/w in diet, 16 weeks
Description: (§1) First, 4-week-old male C57BL/6J mice (60 total) were purchased from Jackson Laboratory. The animals were acclimated to the vivarium in a thermo-hygrostat (20-23° C., 45-65%) under a 12 h light/dark cycle and fed a pelletized commercial non-purified diet for 1 week after arrival. The mice were then randomly divided into 6 groups (n=10) and fed the respective experimental diets for 16 weeks: normal diet group (ND, American Institute of Nutrition (AIN)-76 semi-synthetic diet), high-fat diet group (HFD, 20% fat+1% cholesterol based on AIN-76 diet), PSI group (HFD+5% D-psicose, w/w, Sigma Chemical Company), ERY group (HFD+5% erythritol, w/w, Sigma Chemical Company), GLU group (HFD+5% D-glucose, w/w, Sigma Chemical Company), and FRU group (HFD+5% D-fructose, w/w, Sigma Chemical Company). All high-fat diet-fed groups were allowed to ingest the same calories by pair feeding based on the PSI group. The mice had ad libitum access to distilled water during the experimental period. Their feed intakes and body weights were measured daily and biweekly, respectively. The organ weights and the adipose tissue weights of the mice were measured after sacrificing the animals.
(§2) Samples were prepared and analyzed as previously described. Specifically, total RNA was synthesized into cDNA using a QuantiTect Reverse Transcription kit (QIAGEN Gmb1h, Hilden, Germany). RNA expression was quantified with real-time quantitative PCR using a QuantiTect SYBR Green PCR kit (QIAGEN Gmb1h, Hilden, Germany). Primers were designed to detect FAS (fatty acid synthase, 14101), ACC1 (Acetyl-CoA carboxylase 1, 107476), CPT1α (Carnitine palmitoyltransferase 1α, 12894), and CPT2 (Carnitine palmitoyltransferase 2, 12896). GAPDH was used as an internal transcription marker. The reaction was performed a total of 40 cycles (each consisting of 15 sec at 94° C., 30 sec at 58° C., 30 sec at 72° C., and 15 sec at 65° C.). Fluorescence signals were monitored every cycle and the resulting threshold cycles (Ct) were analyzed. mRNA expression in each experimental group was quantified using a CFX96 Real time system (Bio-rad, USA).

[2] = test system: FAS (fatty acid synthase, 14101); test: Hepatic mRNA expression, real-time quantitative PCR: FAS; conditions: FIG. 6, liver, HFD+5% w/w in diet, 16 weeks
Description: as §1, §2

[3] = test system: high-fat diet-induced obese mice; test: Plasma lipid profiles of high-fat diet-induced obese mice; conditions: HFD+5% w/w in diet, 16 weeks
Description: as §1, with “animals. Plasma free fatty acid, phospholipid, apolipoprotein A-I (Apo A-I), and apolipoprotein B (ApoB B) levels were measured using Nittobo enzymatic kits (Nittobo medical Co., Tokyo, Japan). Plasma HDL-cholesterol, triglyceride (TG), and total cholesterol (total-C) levels were measured using Asan enzymatic kits (Asan, Seoul, South Korea).” for “animals.”

[4] = test system: high-fat diet-induced obese mice; test: Hepatic lipid profiles; conditions: FIG. 4A, HFD+5% w/w in diet, 16 weeks
Description: as §1
Hepatic lipids were extracted from mice in the normal diet group (ND) and high-fat diet groups (HFD, ERY, GLU, FRU, and PSI) and dried. Then, each of the dried hepatic lipid extracts was dissolved in 1 ml of ethanol. 200 μl of the lipid solution was emulsified in a solution of Triton X-100 and sodium cholate in distilled water. Hepatic fatty acid, triglyceride, and cholesterol levels were analyzed using the same enzymatic kits as those used in Example 2.

| SMILES | hepatic fatty acid β-oxidation activity (Fatty acid β-oxidation) | hepatic mRNA expression level of CPT2 [1] | hepatic mRNA expression level of FAS [2] | AI, atherogenic index, [(Total C) − HDL-C)]/HDL-C [3] | APO-A I/APO-B [3] | ApoA-I [3] [mg/dL] | ApoB [3] [mg/dL] | FFA (plasma free fatty acid) [3] [mmol/L] | HDL-C [3] [mmol/L] | HTR, (HDL-C/Total-C) × 100 [3] | PL (plasma phospholipid) [3] [mg/dL] | TG (plasma triglyceride) [3] [mmol/L] | Total-C (plasma total cholesterol) [3] [mmol/L] | nonHDL-C [3] [mmol/L] | hepatic cholesterol level [4] | hepatic fatty acid level [4] | hepatic triglyceride level [4] |
| --- | --- | --- | --- | --- | --- | --- | --- | --- | --- | --- | --- | --- | --- | --- | --- | --- | --- |
| O=C[C@H](O)[C@@H](O)[C@H](O)[C@H](O)CO [GLU, D-glucose] | increased significantly compared to those in the ND group | significantly lower than those in the ND group | significantly lower than those in the ND group | 3.76 | 2.92 | 27.23 | 9.32 | 0.49 | 0.82 | 20.19 | 104.86 | 1.28 | 4.07 | 3.25 | significantly higher than those in the ND group | significantly higher than those in the ND group | significantly higher than those in the ND group |
| O=C(CO)[C@@H](O)[C@H](O)[C@H](O)CO [FRU, D-fructose] | increased significantly compared to those in the ND group | significantly lower than those in the ND group | significantly lower than those in the ND group | 4.55 | 2.77 | 27.69 | 9.96 | 0.48 | 0.83 | 20.62 | 115.27 | 1.17 | 4.14 | 3.32 | significantly higher than those in the ND group | significantly higher than those in the ND group | significantly higher than those in the ND group |
| OC[C@@H](O)[C@@H](O)CO [ERY, erythritol] | increased significantly compared to those in the ND group | significantly lower than those in the ND group | significantly lower than those in the ND group | 3.55 | 3.16 | 27.28 | 8.61 | 0.53 | 1.22 | 23.95 | 135.46 | 1.25 | 5.35 | 4.36 | significantly higher than those in the ND group | significantly higher than those in the ND group | significantly higher than those in the ND group |
| O=C(CO)[C@H](O)[C@H](O)[C@H](O)CO [PSI, D-psicose] | decreased significantly compared to those in other high-fat diet groups | much significantly lower than those in the ND group | much significantly lower than those in the ND group |  | 3.80 |  |  |  |  | 42.98 | 107.23 |  |  |  | decreased significantly compared to those in other high-fat diet groups | decreased significantly compared to those in other high-fat diet groups | decreased significantly compared to those in other high-fat diet groups |
